What was measured:
Format in all cases: in vivo
[1] = Food intake in young lean and old obese C57BL/6J mice; details: s.c. at t=0 h and t=12 h, p<0.05 versus vehicle
Experimental: C57BL/6J mice were on a high fat diet for 11 days and C57BL/6J mice were on a high fat diet for 52 weeks.
3 days before study, the mice were transferred to individual cages and weighed. 4 days before study, they were acclimatized to handling and treatment by daily s.c. injections. On the day before the experiment food was removed at 20:00. […] Immediately after treatment (t=0), pre-weighed food were introduced to the mice and the cumulative food intake was measured by weighing the remaining food after t=1, 2, 4, 8, 12 and 24 hours. After weighing the food and the animals at t=24 h, the mice were sacrificed by cervical dislocation.
Immediately after treatment (t=0), pre-weighed food were introduced to the mice and the cumulative food intake was measured by weighing the remaining food after t=1, 2, 4, 8, 12 and 24 hours.

[2] = Total cholesterol and HDL/LDL ratio in Diet Induced Obese (DIO) mice; details: 4 weeks, 12.7 nmol/kg, plasma, P<0.0001
Experimental: The assay is an enzymatic colorimetric method. In the presence of magnesium ions, dextran sulfate selectively forms water-soluble complexes with LDL, VLDLA and chylomicrons, which are resistant to PEG-modified enzymes. The HDL cholesterol is determined enzymatically by cholesterol esterase and cholesterol oxidase coupled with PEG to the amino groups. Cholesterol esters are broken down quantitatively to free cholesterol and fatty acids. HDL cholesterol is enzymatically oxidized to choles-4-en-3-one and H2O2, and the formed H2O2 is measured colorimetrically (Cobas®; Application note HDLC3).
The direct determination of LDL takes advantage of the selective micellary solubilization of LDL by a nonionic detergent and the interaction of a sugar compound and lipoproteins (VLDL and chylomicrons). The combination of a sugar compound with detergent enables the selective determination of LDL in plasma. […] Free cholesterol is then oxidized and the formed H2O2 is measured colorimetrically (Application note LDL_C, Cobas®).
Diet Induced Obese (DIO) mice were treated with vehicle or compound 7 for 4 weeks and plasma prepared from the collected blood samples. The total cholesterol, LDL and HDL were determined in each plasma sample (Cobas® application notes: CHOL2, HDLC3 and LDL_C) and results are shown in FIGS. 5 and 6.

[3] = Pharmacokinetic screening in mouse plasma after subcutaneous administration; details: sc, mice, 100 nmol/kg s.c., * = only two time points used for calculation
Experimental: Mice were dosed 100 nmol/kg subcutaneously (s.c.). The mice were sacrificed and the blood collected at the following time points; 0.5, 2, 4, 6, 16 and 24 h. Plasma samples were analyzed using protein precipitation, followed by solid phase extraction (SPE) and liquid chromatography mass spectrometry (LC-MS).
Pharmacokinetic profiles were determined for various acylated compounds.

[4] = Body weight gain in high fat fed C57BL/6J mice (10 days); details: 5 nmol/kg b.i.d. s.c., short term high fat-fed C57BL/6J mice
Method in brief: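 Male C57Bl/6J mice fed high fat diet for 4 weeks from 6 weeks of age, vehicle-acclimatized 3 days, then dosed b.i.d. s.c. with peptide at 0.5 and 5 nmol/kg or vehicle. Doses corrected to daily body weights, which were recorded throughout.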

[5] = Oral glucose tolerance 2, 4, 6, 8, 10 and 12 h after dosing in high fat fed mice; details: 10 nmol/kg s.c. single dose, high fat fed C57BL/6J mice
Experimental: C57Bl/6J male mice, 6 weeks old, were acclimatized to their new environment with free access to a high fat diet (D12492, Research Diet Inc., New Brunswick, USA) and water. The animals were injected s.c. with vehicle for a period of three days to acclimatize the animals to handling and injections. Blood samples were taken from the tip of the tail and blood glucose measured. The blood glucose (mM) concentration was analyzed by the immobilized glucose oxidase method using a drop of blood (<5 μl; Contour Autoanalyser, Bayer, Denmark) following the manufacturer's manual. After 4 weeks on the high fat diet the animals were weighed and the body weight was used to administer a body weight-corrected dose of peptide. An oral glucose tolerance test (OGTT) was performed after subjecting the animals to 4 hours of fasting. At 2, 4, 6, 8, 10 and 12 hours after single peptide or vehicle dosing an initial blood sample were taken (t=−0 min). Immediately thereafter, an oral dose of glucose (1 g/kg) was given and the animals were returned to their home cages (t=0). BG levels were measured at t=15 min, t=30 min, t=60 min and t=90 min. […]
An oral glucose tolerance test (OGTT) was performed after subjecting the animals to 4 hours of fasting. […] BG levels were measured at t=15 min, t=30 min, t=60 min and t=90 min. […]

[6] = HbA1c in db/db mice after 28 days; details: 4 weeks, 12.7 nmol/kg, P=0.03 Students t-test
Experimental: Male mice (Long term high fat fed C57Bl/6J, short term high fat fed C57Bl/6J and db/db) were acclimatized with free access to food and water. They were housed in groups of 5-6 in a light-, temperature-, and humidity-controlled room (12-hour light:12-hour dark cycle, lights On/Off at 2000/0800 hour; 24° C.; 50% relative humidity).
The animals were injected s.c. with 100 μl vehicle (once a day) for a period of three days to acclimatize the animals to handling and injections. Blood samples were taken from the eye or from the tip of the tail. The animals were randomized before treatment.
Mice were treated twice daily s.c. with GluGLP-1 agonist or vehicle (injection volume=2.5 ml/kg). Throughout the study, body weights were recorded daily and used to administer the body weight-corrected doses of peptide. Peptide solutions were prepared fresh immediately before dosing. […]
The HbA1c determination is based on Turbidimetric INhibition ImmunoAssay (TINIA) in which HbA1c in the sample reacts with anti-HbA1c to form soluble antigen-antibody complexes. Additions of polyhaptens react with excess anti-HbA1c antibodies to form an insoluble antibody-polyhapten complex, which can be measured turbidimetrically. Liberated hemoglobin in the hemolyzed sample is converted to a derivative having a characteristic absorption spectrum, which is measured bichromatically during the preincubation phases. […]

For `CCCCCCCCCCCCCCCC(=O)N[C@@H](CCC(=O)NCCCC[C@H](NC(=O)[C@H](CO)NC(=O)[C@H](CC(=O)O)NC(=O)[C@H](CC(C)C)NC(=O)[C@H](Cc1ccc(O)cc1)NC(=O)[C@H](CCCCN)NC(=O)[C@H](CO)NC(=O)[C@H](Cc1ccc(O)cc1)NC(=O)[C@H](CC(=O)O)NC(=O)[C@H](CO)NC(=O)[C@@H](NC(=O)[C@H](Cc1ccccc1)NC(=O)[C@@H](NC(=O)CNC(=O)[C@H](CCC(N)=O)NC(=O)C(C)(C)NC(=O)[C@@H](N)Cc1c[nH]cn1)[C@@H](C)O)[C@@H](C)O)C(=O)N[C@@H](C)C(=O)N[C@@H](C)C(=O)N[C@@H](Cc1c[nH]cn1)C(=O)N[C@@H](CC(=O)O)C(=O)N[C@@H](Cc1ccccc1)C(=O)N[C@H](C(=O)N[C@@H](CCC(=O)O)C(=O)N[C@@H](Cc1c[nH]c2ccccc12)C(=O)N[C@@H](CC(C)C)C(=O)N[C@@H](CC(C)C)C(=O)N[C@@H](CO)C(=O)N[C@@H](C)C(N)=O)C(C)C)C(=O)O` [Compound 7], the “food intake, old obese mice” value ([1]; high fat diet for 52 weeks) was “reduced food intake during the 0-2, 0-4, 0-8, 0-12 and 0-24 time periods”, the “food intake, young lean mice” value ([1]; high fat diet for 11 days) was “reduced food intake during the 0-4, 0-8, 0-12 and 0-24 time periods” and the HDL/LDL-ratio [2] was “increased the HDL/LDL-ratio”. For the same compound, the total cholesterol concentrations [2] was “decreased total cholesterol concentrations”, the half-life [3] was 204 min and the “body weight gain, high dose” value [4] was “significantly decreased body weight gain at the high dose”. The “glucose tolerance (AUC during oral glucose tolerance test)” value [5] was “significantly improves glucose tolerance” and the “ΔHbA1c (%) compared to vehicle” value [6] was “decreased ΔHbA1c (%) significantly”.

From patent US10004786B2 (Zealand Pharma A/S, priority 2009, dated 2018)
